{"source": "patent US8759309B2", "about": "“Polynucleotides that stimulate neutrophils” (Immunom Technologies, Inc., priority 2010, dated 2014)", "test_system": "neutrophils isolated from the kidneys of fathead minnows", "assay": "Neutrophil oxidative (respiratory) burst, oxidation of DHR123 to rhodamine by flow cytometry", "assay_type": "cell-based, Pimephales promelas", "settings": "for % of PMA (oxidative burst): PMA at 1 μg/ml = 100%, * P<0.05; for stimulation of neutrophils (qualitative): exposure of neutrophils to individual oligos and their dimer", "description": "Polynucleotides that stimulate neutrophils may be identified by exposing neutrophils isolated from the kidneys of fathead minnows to one or more polynucleotides complementary to an Initiation Site of Origin of Replication. The oxidation of the non-fluorescent dihydrorhodamine 123 (DHR123) to fluorescent rhodamine (Rh 123) may be determined indirectly by determining fluorescence intensity using spectrofluorometry in a flow cytometer. Rh 123 has an absorption maximum at 507 nm and a fluorescence maximum at 529 nm. Results of fluorescence intensity for the polynucleotide of the present invention and a control may be obtained and compared. The control serves as a reference point for measuring changes in phenotype such as fluorescence intensity. A control may include a neutrophil contacted with a known neutrophil stimulator, such as phorbol myristic acetate (PMA), and/or a neutrophil not exposed to the neutrophil stimulator or the polynucleotide of the present invention. The degree or amount of fluorescent intensity of each sample may be determined at a desired time point and the values of various samples compared. For example, a similar or an increase in the fluorescence intensity level of a sample from a neutrophil exposed to a polynucleotide of the present invention relative to the fluorescence intensity level of a sample from a neutrophil exposed to a known neutrophil stimulator would be indicative of the polynucleotide being able to stimulate neutrophils. For example, an increase in the fluorescence intensity level of a sample from a neutrophil exposed to a polynucleotide of the present invention relative to the fluorescence intensity level of a sample from a control neutrophil not exposed a known neutrophil stimulator or polynucleotide of the present invention would be indicative of the polynucleotide being able to stimulate neutrophils. Other suitable assays may be used to determine neutrophil stimulation, by measuring the uptake of oxygen or destruction of bacteria, including but not limited to. Measuring the release of specific cytokines can also be used to determine neutrophil activity. See: Scapini, P., Llapinet-Vera, J., Gasperini, S., Calzetti, F., Bazzoni, F., Cassatella, M., The Neutrophil as a Cellular Source of Cytokines; Immunol. Rev. 177, 195-203.\nKilling microbes by the action of myeloperoxidase requires oxygen. Therefore, measuring the transient increase in oxygen uptake—the respiratory burst—by neutrophils reflects their antimicrobial activity. The respiratory burst, therefore, can be used as an indicator of the extent of neutrophil stimulation.\nOligo A can dimerize with itself which may explain why it had less broad stimulating activity than die Oligo B. It was determined by spectrofluorometry in a flow cytometer which recorded the oxidation of the non-fluorescent dihydrorhodamine 123 (DHR123) to fluorescent rhodamine during exposure of neutrophils to the oligos. Results were compared to the degree of fluorescence of a known powerful neutrophil stimulator, phorbol myristic acetate (PMA).\nThe degree of stimulation by PMA at a concentration of […] represented in the accompanying graph as 100%.\nNeutrophils from fathead minnows were prepared and tested by the Institute for International Cooperation in Animal Biologics, Iowa State Univ., Ames, Iowa 50011 (See: Immunomodulatory Effects of B-glucan on Neutrophil Function in Fathead Minnows, Pimephales promelas Rafinesque, 1820, Dev. and Comp. Immunol. (2006 30; 817-830), Palić, D., et al). Oligos were prepared by Oligos, Etc., Portland, Oreg. 97298).", "note": "Where “and” joins values, the source holds several entries; their conditions need not be identical. Equal entries are not always repeated. Entries after “also recorded” stand apart in the source; their conditions may differ.", "data": [{"compound": "5′UUAUCCACA3′ (UUAUNCACA; chemistry not fully specified) [Oligo B]", "values": [{"measurement": "neutrophil destruction", "setting": "30 μg/ml", "value": "did not indicate neutrophil destruction"}, {"measurement": "% of PMA (oxidative burst)", "setting": "Oligo Conc. 0.03 μg/ml", "value": "30 % of PMA and 29.57* % of PMA"}, {"measurement": "% of PMA (oxidative burst)", "setting": "Oligo Conc. 0.3 μg/ml", "value": "18.32* % of PMA"}, {"measurement": "% of PMA (oxidative burst)", "setting": "Oligo Conc. 3 μg/ml", "value": "33.02* % of PMA"}, {"measurement": "% of PMA (oxidative burst)", "setting": "Oligo Conc. 30 μg/ml", "value": "14.93 % of PMA"}, {"measurement": "oxidative burst compared with other oligos", "setting": "P<0.05 denoted by *", "value": "significantly higher than Oligo A at all tested concentrations; also recorded: significantly higher than mixtures of Oligos A and B at most concentrations"}, {"measurement": "stimulation of neutrophils (qualitative)", "value": "significant stimulation"}]}, {"compound": "5′AAUAggUgU3′ (AAUANGUGU; ribonucleotide, lower-case positions undefined, further chemistry not given here) [Oligo A, ribonucleotide complementary to the consensus core of bacterial Initiation Sites]", "values": [{"measurement": "% of PMA (oxidative burst)", "setting": "Oligo Conc. 0.03 μg/ml", "value": "11.83 % of PMA"}, {"measurement": "% of PMA (oxidative burst)", "setting": "Oligo Conc. 0.3 μg/ml", "value": "0 % of PMA"}, {"measurement": "% of PMA (oxidative burst)", "setting": "Oligo Conc. 3 μg/ml", "value": "0 % of PMA"}, {"measurement": "% of PMA (oxidative burst)", "setting": "Oligo Conc. 30 μg/ml", "value": "16.21 % of PMA"}, {"measurement": "stimulation of neutrophils (qualitative)", "value": "significant stimulation"}]}, {"compound": "CCCCCCCCCCCCCC(=O)O[C@@H]1[C@@H](C)[C@@]2(O)[C@@H](C=C(CO)C[C@]3(O)C(=O)C(C)=C[C@@H]23)[C@@H]2C(C)(C)[C@]12OC(C)=O", "note": "[PMA, phorbol myristic acetate, reference compound]", "values": [{"measurement": "degree of stimulation (reference)", "setting": "PMA at 1 μg/, set as 100%", "value": 100, "unit": "%"}]}]}
